Here are results for two compounds from patent publication US8691261B2, “Drug, drug guidance system, magnetic detection system, and drug design method” (IHI Corporation, priority 2005, dated 2014).

The conditions of series [1]: compared to cisplatin; cited from earlier work.
Series [2] has as its system rat L6 cells. Description: number of rat L6 cells in flask with bar magnet after sprinkling Fe complex powder. The note with it: 48 hours, bar magnet in contact with flask. It is filed as cell-based. An excerpt:
A group of samples shown on the left side is obtained by diluting a pyridine concentrate solution with water (double distilled water (DDW)), while a group of samples shown on the right side is obtained by diluting a pyridine iron complex saturated solution with pyridine. By changing the concentration of the iron complex in pyridine to, for example, ½ or 1/16 of the aforementioned concentration of the solution containing only pyridine, the MRI can detect changes in the concentration through images. Subsequently, when rat L6 cells were in 30% confluent state, Fe complex powder was sprinkled over a culture medium as much as required to enable visual observation of the Fe complex powder when being drawn to magnets. 48 hours later, the condition of the culture medium was photographed.
Referring to FIG. 22, “proximal to magnet” means within the projected area of the bottom of the rectangular flask in contact with the end face of the magnet, while “distal from magnet” means an area of the rectangular flask opposite the end face of the magnet. […] As a result, the magnetic drug and the system including the magnetic field generating means according to the present invention can concentrate the drug at the target affected part or tissues of an individual body.

The nature of series [3]: magnetic guidance to mouse right kidney, SNR measured by MRI. The note with it: intravenous, 5 mg/ml (15 mM), right kidney approximately 0.3 T, 10 minutes. The format is in vivo. An excerpt: Next, another example of a guidance system according to the present invention will be explained. In this guidance system, a pair of magnets 230 and 232 located opposite to each other in a direction of gravitational force is supported by a stand 234 and a clamp 235, and a metal plate 236 is placed between the magnets as shown in FIG. 23. A locally uniform and strong magnet field can be generated by placing the metal plate, particularly an iron plate, between the pair of magnets.
The drug can be concentrated on the target tissues by placing the tissues of the individual body in this area of the magnetic field. The aforementioned metal complex (drug concentration: 5 mg/ml (15 mM)) was administered intravenously to a mouse (weight: approximately 30 g), the abdominal cavity of the mouse was opened, and the mouse was then placed on the iron plate so that its right kidney was positioned between the pair of magnets.
The magnets used were neodymium permanent magnets made by Shin-Etsu Chemical Co., Ltd. (product number: N50; residual magnetic flux density: 1.39-1.44 T). […] The magnetic field was applied to the mouse's right kidney; and 10 minutes later, the SNR of the right kidney as well as the left kidney […] (control) to which no magnetic field was applied was measured in T1 mode and T2 mode, using the MRI system.

In the case of `CC(C[NH-])CC[NH-].O=C([O-])C1(C(=O)[O-])CCC1.[Pt+4]` [NK121], the anticancer effect entry in series [1] is recorded as “comparable to that of cisplatin”.

For Fe-salen, in series [2], the “number of cells at area proximal to the magnet compared to area distal from the magnet” value is listed as “extremely low”. In addition, the “amount of drug held in kidney tissues (SNR, T1 and T2 mode MRI)” value in series [3] is given as “larger amount of the drug could be held in the tissues of the right kidney (RT)”.
